{"source": "patent US8304448B2", "about": "“Method for the treatment of metabolic disorder containing benzazole derivatives as an active ingredient” (Korea Research Institute of Bioscience and Biotechnology, priority 2006, dated 2012)", "key": {"[1]": {"tested_on": "ICR mice", "assay": "Acute toxicity, oral administration for two weeks, mice", "assay_type": "in vivo", "details": "oral 100 and 250 mg/kg for two weeks", "description": "(§1) An assay of the benzazole derivatives of Chemical Formula 1 in accordance with the present invention was performed for acute toxicity on mice (20±5 g, Central Lab. Animal Inc.) and rats (235±10 g, Central Lab. Animal Inc.).\n(§2) For this, ICR mice and Sprague-Dawley rats were assigned to 4 groups of 10 and orally administered with Compound 22 in doses of 100 and 250 mg/kg for two weeks."}, "[2]": {"tested_on": "DGAT", "assay": "Assay for inhibitory activity against DGAT ([14C]triacylglycerol formation, rat microsomal protein)", "assay_type": "biochemical", "details": "rat microsomal protein as enzyme source", "source_text": "The derivatives of Chemical Formula 1 in accordance with the present invention are found to inhibit the enzymatic activity of DGAT at a dose-dependent manner (refer to Table 2 and FIG. 1) as measured in a test in which [^14C]triacylglycerol was quantitatively analyzed after enzymatic reaction between 1,2-diacylglycerol and [^14C]palmitoyl-CoA, with microsomal proteins from rats serving as an enzyme source (refer to Example 1).\nAfter enzymatic reaction between two substrates 1,2-diacylglycerol (Sigma, D0138) and [^14C]palmitoyl-CoA (Amersham, CFA583) with the microsomal protein of rat serving as an enzyme source in accordance with Coleman et al, Methods Enzymol., 98-103, 1992, the resulting product [^14C] triacylglycerol was measured for radioactivity. In detail, to a reaction buffer (175 mM Tris-HCl, pH 8.0, 20 μl bovine serum albumin (10 mg/ml), 100 mM MgCl2, 30 μM [^14C] palmitoyl-CoA (0.02 μCi, Amersham) and 200 μM 1,2-dioleoyl glycerol) was added 10 μl of a solution of the samples in dimethylsulfoxide (DMSO) and then 100˜200 μl of an isolated microsomal protein, followed by reaction at 25° C. for 10 min. The reaction was terminated with 1.5 ml of a mixture of 80:20:2 2-propanol:heptane:water (v:v:v). Thereafter, the [^14C] triacylglycerol thus formed was separated. In this regard, 1 ml of heptane and 0.5 ml of distilled water were added to the reaction mixture, which was then shaken. 1 ml of the supernatant thus formed was mixed with 2 ml of an alkaline ethanol solution (ethanol:0.5 N sodium hydroxide:water=50:10:40, v:v:v), followed by shaking. After being taken, 0.65 ml of the supernatant thus formed was measured for radioactivity using an LSC (liquid scintillation counter). The inhibitory activity against DGAT was calculated according to the following Mathematical Formula 1. The inhibitory effects of the benzazole derivatives on DGAT are summarized in Table 2, below while % DGAT inhibition is plotted against doses of compound 22 and 31 in FIG. 1.\nT: Cpm of a test group in which a sample was added to an enzymatic buffer,\nC: Cpm of a control in which no samples were added to an enzymatic buffer,\nB: Cpm of a control in which a sample was added in the absence of any enzyme source."}, "[3]": {"tested_on": "ICR mice fed a high-fat diet", "assay": "In vivo assay for anti-obesity activity in mice fed a high-fat diet", "design": "species or system mouse", "description": "Also, the derivatives of Chemical Formula 1 were tested for resistance to obesity by iterative oral administration at a dose of 10 mg/kg into ICR male mice (refer to Example 3). […] When they were administered, the levels of total triglycerides, total cholesterols, and low density lipoprotein (LDL)-cholesterol in the blood recovered to almost normal levels, with a significant increase observed in the level of high density lipoprotein (HDL)-cholesterol in the blood (refer to Tables 6 and 7 and FIGS. 3 and 4).\nIn order to verify the anti-obesity activity of the benzaldehyde derivatives of Chemical Formula 1 in accordance with the present invention, Compounds 22 and 31 were administered repetitively into rodents as follows.\nThe experimental animals were 6 week old ICR mice which were purchased from Japan SLC, Inc. via Central Lab. Animal Inc. Korea. They were acclimated to a new environment for one week before use, and fed with a foodstuff commercially available from Deyts, U.S.A. They were bred in an animal lab set at a temperature of 23±3° C. and RH 50±10% under light of 150˜300 Lux for a period of 12 hours (6 a.m.˜6 p.m.) with ventilation 10-20 times/hour. All of the 12 mice used were male, and were organized into two groups of 6. The test group was orally administered once a day at 4 p.m. with 10 mg/kg of the compound (Chemical Formula 1) in the form of a solution in biological saline for 35 days while the control was administered with biological saline only. Xenical, a commercially available lipase inhibitor, was administered orally at a dose of 10 mg/kg once a day as a positive control drug.\nThe animals were measured for body weight every week and sacrificed on Day 35, after which blood from the heart was sampled. Abdominal fat, epididymal fat, retroperitoneal fat and the liver were excised and weighed. Blood samples were assayed for total triglyceride, total cholesterol, HDL-cholesterol and LDL-cholesterol using respective test kits, all commercially available from Asan Pharmaceutical Co. Ltd., Korea.\nFor evidence of anti-obesity activity, compounds 22 and 31 were orally administered at regular intervals at a dose of 10 mg/kg into ICR male mice for a predetermined period of time with the concurrent provision of conditional diets thereto. Anatomized abdomens of the animals are given in the photographs of FIG. 2."}, "[4]": {"tested_on": "Sprague-Dawley rats", "assay": "Acute toxicity, oral administration for two weeks, rats", "assay_type": "in vivo", "details": "oral 100 and 250 mg/kg for two weeks", "description": "as §1, §2"}, "[5]": {"details": "Day 35, high-fat diet, 10 mg/kg oral, Mean ± SD"}, "[6]": {"details": "blood, Day 35, high-fat diet, 10 mg/kg oral, Mean ± SD"}}, "data": [{"smiles": "O=C(NCc1ccco1)c1ccc2oc(COc3ccc(C45CC6CC(CC(C6)C4)C5)cc3)nc2c1", "note": "[Cpd. 22, 2-(4-adamantan-1-yl-phenoxymethyl)-benzoxazole-5-carboxylic acid (furan-2-ylmethyl)-amide]", "values": [{"measurement": "apparent symptoms", "setting": "[1]", "value": "no apparent symptoms different from the control"}, {"measurement": "DGAT (% inhibition in 5 μM)", "setting": "[2]; 5 μM", "value": 42.8, "unit": "%"}, {"measurement": "DGAT (% inhibition in 25 μM)", "setting": "[2]; 25 μM", "value": 78.03, "unit": "%"}, {"measurement": "abdominal fat increment (FIG. 2)", "setting": "[3]; 10 mg/kg, compared to groups fed only the high-fat diet, final day", "value": "significantly decreased"}, {"measurement": "(Tissue Weight/Body Weight) × 100 Abdominal Fat + Epididymal Fat", "setting": "[3]; [5]", "value": "3.97 ± 0.72"}, {"measurement": "(Tissue Weight/Body Weight) × 100 Liver", "setting": "[3]; [5]", "value": "4.66 ± 0.65"}, {"measurement": "(Tissue Weight/Body Weight) × 100 Retroperitoneal Fat", "setting": "[3]; [5]", "value": "1.24 ± 1.31"}, {"measurement": "(Tissue Weight/Body Weight) × 100 Total Fat", "setting": "[3]; [5]", "value": "5.24 ± 0.91"}, {"measurement": "HDL-Cholesterol", "setting": "[3]; [6]", "value": "21.66 ± 2.16", "unit": "mg/dL"}, {"measurement": "LDL-Cholesterol", "setting": "[3]; [6]", "value": "37.57 ± 15.14", "unit": "mg/dL"}, {"measurement": "Total Cholesterol", "setting": "[3]; [6]", "value": "68.89 ± 14.95", "unit": "mg/dL"}, {"measurement": "Total Triglyceride", "setting": "[3]; [6]", "value": "48.33 ± 9.83", "unit": "mg/dL"}, {"measurement": "inhibition of body weight gain", "setting": "[3]; high-fat diet, 10 mg/kg oral once a day for 35 days", "value": 68, "unit": "%"}, {"measurement": "Body Weight (g) (Mean ± SD) Week 0", "setting": "[3]; high-fat diet, 10 mg/kg oral once a day, Week 0", "value": "26.30 ± 1.27", "unit": "g"}, {"measurement": "Body Weight (g) (Mean ± SD) Week 1", "setting": "[3]; high-fat diet, 10 mg/kg oral once a day, Week 1", "value": "34.75 ± 1.75", "unit": "g"}, {"measurement": "Body Weight (g) (Mean ± SD) Week 2", "setting": "[3]; high-fat diet, 10 mg/kg oral once a day, Week 2", "value": "37.94 ± 2.33", "unit": "g"}, {"measurement": "Body Weight (g) (Mean ± SD) Week 3", "setting": "[3]; high-fat diet, 10 mg/kg oral once a day, Week 3", "value": "40.34 ± 3.39", "unit": "g"}, {"measurement": "Body Weight (g) (Mean ± SD) Week 4", "setting": "[3]; high-fat diet, 10 mg/kg oral once a day, Week 4", "value": "42.48 ± 2.90", "unit": "g"}, {"measurement": "Body Weight (g) (Mean ± SD) Week 5", "setting": "[3]; high-fat diet, 10 mg/kg oral once a day, Week 5", "value": "43.90 ± 1.20", "unit": "g"}, {"measurement": "apparent symptoms", "setting": "[4]", "value": "no apparent symptoms different from the control"}]}]}
